pIC50: −log10 of the molar value.

Assay [1] is described as follows: Inhibition of soybean 15-LOX by chemiluminescence based analysis. Set-up: species or system Glycine max.
The target in assay [2] is T1, Seed linoleate 13S-lipoxygenase-1 (Glycine max, UniProt P08170).
T1 sequence (P08170 whole entry): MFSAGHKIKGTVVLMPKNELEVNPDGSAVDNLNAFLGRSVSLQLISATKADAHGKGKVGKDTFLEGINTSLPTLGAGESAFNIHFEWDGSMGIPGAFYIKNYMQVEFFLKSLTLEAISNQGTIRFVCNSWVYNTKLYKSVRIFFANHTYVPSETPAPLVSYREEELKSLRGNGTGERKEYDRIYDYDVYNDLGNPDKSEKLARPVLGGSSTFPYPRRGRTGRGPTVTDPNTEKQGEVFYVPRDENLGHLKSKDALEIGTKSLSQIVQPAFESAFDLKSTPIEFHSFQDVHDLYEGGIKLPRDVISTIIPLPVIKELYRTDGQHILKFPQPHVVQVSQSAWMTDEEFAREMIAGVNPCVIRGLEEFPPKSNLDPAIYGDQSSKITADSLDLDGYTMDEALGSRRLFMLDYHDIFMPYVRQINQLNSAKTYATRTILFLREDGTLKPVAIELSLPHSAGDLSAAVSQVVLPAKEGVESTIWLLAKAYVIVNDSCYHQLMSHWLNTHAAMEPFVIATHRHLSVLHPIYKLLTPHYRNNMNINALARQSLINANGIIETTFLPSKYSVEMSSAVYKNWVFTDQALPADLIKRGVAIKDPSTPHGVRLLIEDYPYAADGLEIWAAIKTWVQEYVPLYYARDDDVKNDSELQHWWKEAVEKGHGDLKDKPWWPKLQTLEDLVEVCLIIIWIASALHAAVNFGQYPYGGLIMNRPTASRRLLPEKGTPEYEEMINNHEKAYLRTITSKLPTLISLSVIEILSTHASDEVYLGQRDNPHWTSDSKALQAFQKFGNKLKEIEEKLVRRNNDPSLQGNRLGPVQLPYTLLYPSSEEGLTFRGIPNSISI
The assay is described as follows: Inhibition of soybean LOX-1 using linoleic acid as substrate.

Assay [3] in a line: Inhibition of soybean lipoxygenase. Details: species or system Glycine max.
Assay [4] is described as follows: Inhibition of soybean 15-LOX. Set-up: species or system Glycine max.
The target of assay [5] is T2, Prostaglandin G/H synthase 2 (Homo sapiens, UniProt P35354).
T2 sequence (P35354 whole entry): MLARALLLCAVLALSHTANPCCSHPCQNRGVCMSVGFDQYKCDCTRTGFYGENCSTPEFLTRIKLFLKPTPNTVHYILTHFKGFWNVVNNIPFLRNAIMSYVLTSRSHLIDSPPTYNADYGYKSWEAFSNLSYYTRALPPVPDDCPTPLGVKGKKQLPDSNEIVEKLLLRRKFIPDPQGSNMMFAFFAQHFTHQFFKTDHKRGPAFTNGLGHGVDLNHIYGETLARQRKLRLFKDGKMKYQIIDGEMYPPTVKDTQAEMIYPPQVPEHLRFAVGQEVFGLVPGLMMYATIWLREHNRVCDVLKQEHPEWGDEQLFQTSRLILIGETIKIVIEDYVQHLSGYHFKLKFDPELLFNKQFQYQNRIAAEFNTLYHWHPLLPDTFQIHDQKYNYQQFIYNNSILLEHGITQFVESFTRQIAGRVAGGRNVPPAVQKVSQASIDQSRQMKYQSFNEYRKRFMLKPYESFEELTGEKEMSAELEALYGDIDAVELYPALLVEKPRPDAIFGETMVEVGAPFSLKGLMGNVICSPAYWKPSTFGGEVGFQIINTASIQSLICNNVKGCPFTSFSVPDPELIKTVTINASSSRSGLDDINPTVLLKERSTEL
The assay is described as follows: Inhibition of human recombinant COX-2.

The subject of the next assay is Mononuclear cell line. The assay is described as follows: Induction of apoptosis in human Mononuclear cell line assessed as early apoptosis at 10 uM incubated for 48 hrs by AnnexinV-FITC/PI staining based flow cytometry relative to control. It is filed as functional. A general note: A flow cytometer gives signals particle by particle.
The target in assay [6] is T2, Prostaglandin G/H synthase 2. Briefly: Inhibition of COX-2 (unknown origin) by Enzyme immune assay.
The next assay concerns Rattus norvegicus. The assay is described as follows: Anti-inflammatory activity against carrageenan-induced paw edema in Wistar albino rat assessed as inhibition of paw edema at 50 mg/kg, sc administered for 14 days relative to control. The note with it: time 14 day. Set-up: scale not given: the % may be the effect or the level left. It is filed as functional.
A short description of assay [7]: Inhibition of soybean 15-LOX colorimetric assay. Details: species or system Glycine max.
Assay [8] is described as follows: Inhibition of soybean 15-LOX by spectrophotometric method. Set-up: species or system Glycine max.
The nature of assay [9]: Inhibition of human recombinant sPLA2-V.
The subject of another assay is A549. The assay is described as follows: Anticancer activity against human A549 cells assessed as reduction in cell viability measured for 72 hrs by MTT assay. It counts as functional, cell-based. The note with it: A549, 72 h.
The next assay deals with Caco-2. The assay is described as follows: Antiproliferative activity against human Caco-2 cells assessed as reduction in cell growth incubated for 72 hrs by MTT assay. It counts as functional, cell-based. The note with it: Caco-2, 72 h.
For the next assay, the system named is PC-3. Briefly: Antiproliferative activity against human PC-3 cells assessed as reduction in cell growth incubated for 72 hrs by MTT assay. It is filed as functional, cell-based. As to conditions: PC-3, 72 h. For orientation: Formazan colour is commonly taken as a measure of viable cells.
The test system of another assay is MCF7. The assay is described as follows: Antitumor activity against human MCF7 cells assessed as reduction in cell viability measured for 72 hrs by MTT assay. As to conditions: MCF7, 72 h. It counts as functional, cell-based.
The test system of the next assay is HepG2. Briefly: Anticancer activity against human HepG2 cells assessed as cell viability measured after 72 hrs by MTT assay. It is filed as functional, cell-based. As to conditions: HepG2, 72 h.
Assay [10] addresses T2, Prostaglandin G/H synthase 2. Briefly: Inhibition of COX-2 (unknown origin).
Assay [11] deals with Prostaglandin G/H synthase 1 (Homo sapiens) (UniProt P23219). Briefly: Inhibition of human COX-1 at 10 uM relative to control.
Prostaglandin G/H synthase 1 (Homo sapiens), sequence (P23219 whole entry): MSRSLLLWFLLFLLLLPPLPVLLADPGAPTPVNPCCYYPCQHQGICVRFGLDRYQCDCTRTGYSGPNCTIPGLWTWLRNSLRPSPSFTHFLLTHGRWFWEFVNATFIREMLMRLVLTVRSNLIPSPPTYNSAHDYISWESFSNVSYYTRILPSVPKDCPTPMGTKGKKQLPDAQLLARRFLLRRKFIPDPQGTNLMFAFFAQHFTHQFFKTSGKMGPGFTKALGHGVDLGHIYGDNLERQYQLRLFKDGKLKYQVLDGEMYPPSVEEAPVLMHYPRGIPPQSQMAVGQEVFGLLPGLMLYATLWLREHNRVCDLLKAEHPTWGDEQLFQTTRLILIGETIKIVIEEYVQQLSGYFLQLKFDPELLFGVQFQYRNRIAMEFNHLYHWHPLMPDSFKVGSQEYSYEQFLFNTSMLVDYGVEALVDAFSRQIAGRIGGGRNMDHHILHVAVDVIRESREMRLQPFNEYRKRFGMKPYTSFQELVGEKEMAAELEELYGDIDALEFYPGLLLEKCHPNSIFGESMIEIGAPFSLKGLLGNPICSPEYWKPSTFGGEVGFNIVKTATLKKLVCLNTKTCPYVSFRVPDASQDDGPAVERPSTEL

One may read the pIC50 as the negative decadic logarithm of the IC50, by convention in mol/L. Consider `CCCNC(=O)CSc1nnc(C2CCN(C(=O)Nc3ccccc3)CC2)o1`, for which the pIC50 in assay [1] was 5.03. In assay [2], `CC(=O)c1cc2ccc(OC/C=C(\C)CC/C=C(\C)CCC=C(C)C)cc2oc1=O` showed a pIC50 of 6.17. `COc1ccc(-c2nnc(N/N=C/c3ccc(F)cc3)nc2-c2ccc(OC)cc2)cc1`: the pIC50 in assay [3] is 3.91. In the case of `C=CCc1cc(NC(=O)C23CC4CC(CC(C4)C2)C3)ccc1OC(C)C`, the pIC50 in [4] is 5.87. For `CN(C)c1ccc(/C=C/C(=O)c2cc(-n3cc(CN4C(=O)C(=O)c5ccccc54)nn3)ccc2O)cc1`, the pIC50 in assay [5] was 5.85. With `CCc1ccc(NC(=O)CSc2nnc(C3CCN(C(=O)Nc4ccccc4)CC3)o2)cc1`, the pIC50 in assay [1] was 4.58.

`CC(C)(C)Nc1c(-c2cc3ccccc3nc2Cl)nc2sccn12` showed a pIC50 in assay [4] of no less than 4.40.

For `Cc1ccc(NC(=O)CSc2nnc(C3CCN(C(=O)Nc4ccccc4)CC3)o2)c(C)c1`, in [1], the pIC50 was 4.58. Further, in the assay with Mononuclear cell line, the Activity came to 79.5%. In assay [4], `CN1C(C(=O)Nc2ccccn2)=C(O)c2ccccc2S1(=O)=O` [PIROXICAM] had a pIC50 of 4.20. Regarding `COc1ccc2cc(C(C)C(=O)ON=C(N)c3ccc(-c4ccccc4)c(-c4ccccc4)c3)ccc2c1` (stereo not given), the pIC50 in assay [6] is 8.75. `COc1ccc2cc(C(C)C(=O)O/N=C(\N)c3ccc(OC)c(OC)c3)ccc2c1` (stereo not given) had a pIC50 in assay [6] of 8.19. With `COc1ccnc(Nc2nn3c(C)cc(C)nc3c2C#N)c1`, in the assay on Rattus norvegicus, the Activity was found to be 46%. Besides, the pIC50 in assay [7] is 5.25. For the compound `COc1ccc(/C=C/C(=O)c2cc(-n3cc(CN4C(=O)C(=O)c5ccccc54)nn3)ccc2O)cc1`, in assay [5], the pIC50 is 5.85. In [4], `COc1ccc2cc([C@H](C)C(=O)O)ccc2c1` [NAPROXEN] had a pIC50 of 5.45. As to `CCOC(=O)c1sc(N/N=C/c2c(F)cccc2Cl)nc1C`, the pIC50 in assay [8] was 6.92. As to `CC(=O)Oc1ccccc1C(=O)O` [ASPIRIN], the pIC50 in assay [4] was 5.34. As for `O=C(CSc1nnc(C2CCN(C(=O)Nc3ccccc3)CC2)o1)Nc1ccccc1`, the pIC50 in [1] is 4.58.

For `O=c1c(O)c(-c2ccc(O)c(O)c2)oc2cc(O)cc(O)c12` [QUERCETIN], the pIC50 in [4] is 5.32. Also, the Activity in the assay on Mononuclear cell line was 4.26%.

`Cc1cc(C)cc(NC(=O)CSc2nnc(C3CCN(C(=O)Nc4ccccc4)CC3)o2)c1` gave a pIC50 in assay [1] of 4.58. In addition, the Activity in the assay on Mononuclear cell line was 79.5%. As to `Cc1cccc(NC(=O)CSc2nnc(C3CCN(C(=O)Nc4ccccc4)CC3)o2)c1`, in assay [1], the negative-log IC50 (pIC50) was 4.58. For the compound `CCOc1cc(C)nc2c(C#N)c(Nc3cc(OC)ccn3)nn12`, the Activity with Rattus norvegicus amounted to 46%. Also, the pIC50 in assay [9] was 5.77. Turning to `CCn1c(-n2cc(/C=N/N=C3\SCC(=O)N3c3ccccc3)c(-c3ccccc3)n2)nc2c1c(=O)n(C)c(=O)n2C`, the pIC50 in the assay on A549, with Caco-2, in the assay on PC-3, in the assay on MCF7 and in the assay on HepG2 was 4.73 in each case. As to `CCN(CC)C(=O)CSc1nnc(C2CCN(C(=O)Nc3ccccc3)CC2)o1`, the pIC50 in assay [1] was 4.80. The Activity in the assay with Mononuclear cell line was 79.5%. `O=C(Cc1ccccc1Nc1c(Cl)cccc1Cl)N/N=C1\C(=O)N(Cc2ccccc2)c2ccccc21` showed a pIC50 in assay [4] of 5.18. Compound `Cc1ccc(NC(=O)CSc2nnc(C3CCN(C(=O)Nc4ccccc4)CC3)o2)cc1C` gave a pIC50 in assay [1] of 4.58.

In assay [6], `COc1ccc2cc(C(C)C(=O)O/N=C(\N)c3ccc(Cl)cc3)ccc2c1` (stereo not given) had a pIC50 of 8.19. The compound `Cc1cccc(C)c1NC(=O)CSc1nnc(C2CCN(C(=O)Nc3ccccc3)CC2)o1` gave a pIC50 in [1] of 4.74. `CC(c1cc2ccccc2s1)N(O)C(N)=O` (stereo not given) [ZILEUTON] gave a pIC50 in assay [4] of 4.82.

In turn, `Cc1ccc(C)c(NC(=O)CSc2nnc(C3CCN(C(=O)Nc4ccccc4)CC3)o2)c1` gave a pIC50 in assay [1] of 4.58. Consider `O=C(CSc1nnc(C2CCN(C(=O)Nc3ccccc3)CC2)o1)NC1CCCCC1`, for which, in assay [1], the pIC50 was 4.58. As to `CC(=O)Nc1ccc(O)cc1` [ACETAMINOPHEN], the pIC50 in assay [4] was 5.19. `CCOc1cc(N)n2nc(Nc3cc(OC)ccn3)c(C#N)c2n1`: the Activity in the assay on Rattus norvegicus is listed as 46%.

In [4], `O=c1cc(-c2ccccc2)oc2cc(O)c(O)c(O)c12` [BAICALEIN] showed a pIC50 of 4.65. `COc1ccc(/C(N)=N/OC(=O)C(C)c2ccc3cc(OC)ccc3c2)cc1` (stereo not given) gave a pIC50 in [6] of 8.19. In the case of `O=C(/C=C/c1ccc(Br)cc1)c1cc(-n2cc(CN3C(=O)C(=O)c4ccccc43)nn2)ccc1O`, the pIC50 in assay [5] was 5.85.

In assay [4], `O=C(O)Cc1ccccc1Nc1c(Cl)cccc1Cl` [DICLOFENAC] showed a pIC50 of 4.61. With `CCOC(=O)c1sc(N/N=C/c2ccccc2)nc1C`, in assay [8], the pIC50 was 6.92.

For the compound `CC(C(=O)O)c1cccc(C(=O)c2ccccc2)c1` (stereo not given) [KETOPROFEN], the pIC50 in assay [4] is 4.61.

The compound `COc1ccc2cc(C(C)C(=O)ON=C(N)c3ccc4c(c3)OCO4)ccc2c1` (stereo not given) gave a pIC50 in [6] of 8.19. On to `O=C1N/C(=N\c2nnc(-c3ccc(O)cc3)s2)S/C1=C\c1ccccc1`, for which the pIC50 in [4] was 4.96; in assay [10], 7.15. Compound `Cc1cccc(Nc2ccccc2C(=O)O)c1C` [MEFENAMIC ACID] had a pIC50 in [4] of 4.61. For the compound `O=C(Cc1ccccc1Nc1c(Cl)cccc1Cl)N/N=C1\C(=O)N(Cc2ccccc2)c2ccc(Cl)cc21`, the pIC50 in assay [4] was 5.34. For the compound `CCn1c(-n2cc(/C=N/N=c3\scc(-c4ccc(Br)cc4)n3-c3ccccc3)c(-c3ccccc3)n2)nc2c1c(=O)n(C)c(=O)n2C`, the pIC50 in the assay with A549, in the assay with Caco-2, in the assay with PC-3, in the assay with MCF7 and with HepG2 was 4.73 each time.

`COc1ccc(Cn2cc(COc3ccc(/C=C4\SC(=O)NC4=O)cc3)nn2)cc1`: in [1], the pIC50 is 5.28. `Cc1ccc(Cl)c(Nc2ccccc2C(=O)O)c1Cl` [MECLOFENAMATE SODIUM]: in assay [6], the pIC50 is 8.25. Compound `Cc1ccc(OCc2nnc(SCC(=O)Nc3ccccc3)o2)cc1` had a pIC50 in [4] of 4.67. Compound `CC(Cc1ccc(O)c(O)c1)C(C)Cc1ccc(O)c(O)c1` (stereo not given) [NORDIHYDROGUAIARETIC ACID] showed a pIC50 in assay [7] of 5.07. For the compound `CN1C(C(=O)Nc2ccccn2)=C(O)c2sccc2S1(=O)=O` [TENOXICAM], in [4], the negative logarithm of the IC50 (pIC50) is 4.31. As usually defined, the inhibition is the change of the read-out against control, counted positive when it falls. Consider `COc1ccc(-c2nnc(N/N=C/c3ccc4c(c3)OCO4)nc2-c2ccc(OC)cc2)cc1`, for which the inhibition in assay [11] is 50%.

The compound `CCc1ccccc1NC(=O)CSc1nnc(C2CCN(C(=O)Nc3ccccc3)CC2)o1` gave a pIC50 in [1] of 5.15.
